On to `O=C(CC(F)(F)F)N1CCc2nc(-c3ccc(O[C@H]4C[C@H](N5CCCCC5)C4)cc3)sc2C1` [Compound 33, 2-{4-[(trans-3-piperidin-1-ylcyclobutyl)oxy]phenyl}-5-(3,3,3-trifluoropropanoyl)-4,5,6,7-tetrahydro[1,3]thiazolo[5,4-c]pyridine], for which the melting point (as a rule, the temperature of the solid-liquid transition) lay within 167 to 168 °C.
In the case of `c1cc(-c2nc3c(s2)CNCC3)ccc1O[C@H]1C[C@H](N2CCCCC2)C1` [Compound 5, 2-{4-[(trans-3-piperidin-1-ylcyclobutyl)oxy]phenyl}-4,5,6,7-tetrahydro[1,3]thiazolo[5,4-c]pyridine] it was 144.5 °C.
In the case of `Cc1n[nH]nc1C(=O)N1CCc2nc(-c3ccc(O[C@H]4C[C@H](N5CCCCC5)C4)cc3)sc2C1` [Compound 35, 5-[(5-methyl-2H-1,2,3-triazol-4-yl)carbonyl]-2-{4-[(trans-3-piperidin-1-ylcyclobutyl)oxy]phenyl}-4,5,6,7-tetrahydro[1,3]thiazolo[5,4-c]pyridine] it was 150 to 154 °C; in that of `NC(=O)N1CCc2nc(-c3ccc(O[C@H]4C[C@H](N5CCCCC5)C4)cc3)sc2C1` [Compound 10, 2-{4-[(trans-3-piperidin-1-ylcyclobutyl)oxy]phenyl}-6,7-dihydro[1,3]thiazolo[5,4-c]pyridine-5(4H)-carboxamide], 199 °C.
As for `COC(=O)CN1CCc2nc(-c3ccc(O[C@H]4C[C@H](N5CCCCC5)C4)cc3)sc2C1` [Compound 26, methyl [2-{4-[(trans-3-piperidin-1-ylcyclobutyl)oxy]phenyl}-6,7-dihydro[1,3]thiazolo[5,4-c]pyridin-5(4H)-yl]acetate], the figure is 221 °C; as for `CC(C)(C)OC(=O)N1CCc2nc(-c3ccc(O[C@H]4C[C@H](N5CCCCC5)C4)cc3)sc2C1` [Compound 3, tert-butyl 2-{4-[(trans-3-piperidin-1-ylcyclobutyl)oxy]phenyl}-6,7-dihydro[1,3]thiazolo[5,4-c]pyridine-5(4H)-carboxylate], 162.3 °C; as for `CCOC(=O)C(=O)N1CCc2nc(-c3ccc(O[C@H]4C[C@H](N5CCCCC5)C4)cc3)sc2C1` [Compound 49, ethyl oxo[2-{4-[(trans-3-piperidin-1-ylcyclobutyl)oxy]phenyl}-6,7-dihydro[1,3]thiazolo[5,4-c]pyridin-5(4H)-yl]acetate], 145 to 146 °C.
`O=C(N1CCc2nc(-c3ccc(O[C@H]4C[C@H](N5CCCCC5)C4)cc3)sc2C1)C1(O)CC1` [Compound 46, 1-{[2-{4-[(trans-3-piperidin-1-ylcyclobutyl)oxy]phenyl}-6,7-dihydro[1,3]thiazolo[5,4-c]pyridin-5(4H)-yl]carbonyl}cyclopropanol] yielded a melting point of 178 °C.
As for `CC(=O)N1CCc2nc(-c3ccc(O[C@H]4C[C@H](N5CCCCC5)C4)cc3F)sc2C1` [Compound 36, 5-acetyl-2-{2-fluoro-4-[(trans-3-piperidin-1-ylcyclobutyl)oxy]phenyl}-4,5,6,7-tetrahydro[1,3]thiazolo[5,4-c]pyridine], the figure is 142.8 °C.
In the case of `CC(=O)N1CCCCc2nc(-c3ccc(O[C@H]4C[C@H](N5CCCCC5)C4)cc3)sc21` [Compound 31, 4-acetyl-2-{4-[(trans-3-piperidin-1-ylcyclobutyl)oxy]phenyl}-5,6,7,8-tetrahydro-4H-[1,3]thiazolo[5,4-b]azepine] it was 49 °C; in that of `CC(=O)N1CCc2nc(-c3ccc(O[C@H]4C[C@H](N5CCSCC5)C4)cc3)sc2C1` [Compound 22, 5-acetyl-2-{4-[(trans-3-thiomorpholin-4-ylcyclobutyl)oxy]phenyl}-4,5,6,7-tetrahydro[1,3]thiazolo[5,4-c]pyridine], 196 °C.
As for `CC(=O)N1CCc2nc(-c3ccc(O[C@H]4C[C@H](N5CCCCC5)C4)cc3)sc2C1` [Compound 4, 5-acetyl-2-{4-[(trans-3-piperidin-1-ylcyclobutyl)oxy]phenyl}-4,5,6,7-tetrahydro[1,3]thiazolo[5,4-c]pyridine], the figure is 170.3 °C.
Regarding `OC[C@H](O)CN1CCc2nc(-c3ccc(O[C@H]4C[C@H](N5CCCCC5)C4)cc3)sc2C1` [Compound 17, (2R)-3-[2-{4-[(trans-3-piperidin-1-ylcyclobutyl)oxy]phenyl}-6,7-dihydro[1,3]thiazolo[5,4-c]pyridin-5(4H)-yl]propane-1,2-diol], the melting point turned out to be 172 °C.
In the case of `CC(=O)N1CCc2sc(-c3ccc(O[C@H]4C[C@H](N5CCCCC5)C4)cc3)nc2C1` [Compound 29, 5-acetyl-2-{4-[(trans-3-piperidin-1-ylcyclobutyl)oxy]phenyl}-4,5,6,7-tetrahydro[1,3]thiazolo[4,5-c]pyridine] it was 154.2 °C; in that of `CC(=O)N1CCc2nc(-c3ccc(O[C@H]4C[C@H](N5CCCCCC5)C4)cc3)sc2C1` [Compound 19, 5-acetyl-2-{4-[(trans-3-azepan-1-ylcyclobutyl)oxy]phenyl}-4,5,6,7-tetrahydro[1,3]thiazolo[5,4-c]pyridine], 135 °C; in that of `O[C@H]1C[C@@H](N2CCc3nc(-c4ccc(O[C@H]5C[C@H](N6CCCCC6)C5)cc4)sc3C2)C1` [Compound 24, cis-3-[2-{4-[(trans-3-piperidin-1-ylcyclobutyl)oxy]phenyl}-6,7-dihydro[1,3]thiazolo[5,4-c]pyridin-5(4H)-yl]cyclobutanol], 169 °C.
As for `NC(=O)N1CCc2sc(-c3ccc(O[C@H]4C[C@H](N5CCCCC5)C4)cc3)nc2C1` [Compound 64, 2-{4-[(trans-3-piperidin-1-ylcyclobutyl)oxy]phenyl}-6,7-dihydro[1,3]thiazolo[4,5-c]pyridine-5(4H)-carboxamide], the figure is 214.3 °C; as for `NC(=O)C1(C(=O)N2CCc3nc(-c4ccc(O[C@H]5C[C@H](N6CCCCC6)C5)cc4)sc3C2)CC1` [Compound 47, 1-{[2-{4-[(trans-3-piperidin-1-ylcyclobutyl)oxy]phenyl}-6,7-dihydro[1,3]thiazolo[5,4-c]pyridin-5(4H)-yl]carbonyl}cyclopropanecarboxamide], 199 to 200 °C.
